According to the NIST ThermoML archive (doi:10.1016/j.fluid.2014.10.016):

Tests used:
[1] = excess molar enthalpy (molar enthalpy of mixing); xn = mol fraction of the nth substance listed; settings: 101 kPa, Liquid, Flow calorimetry
[2] = 313.15 K; Liquid; Closed cell (Static) method

CCCC(C)O (configuration not stated) [pentan-2-ol] + CC(C)CC(C)(C)C
excess molar enthalpy [kcal/mol], [1]
Settings	298.15 K	313.15 K
x1 = 0.0507	0.114	0.146
x1 = 0.0997	0.154	–
x1 = 0.0998	–	0.196
x1 = 0.1498	0.173	–
x1 = 0.1499	–	0.224
x1 = 0.2009	0.19	0.243
x1 = 0.2499	–	0.258
x1 = 0.25	0.202	–
x1 = 0.3022	0.213	–
x1 = 0.3023	–	0.268
x1 = 0.3502	–	0.271
x1 = 0.3503	0.22	–
x1 = 0.401	–	0.273
x1 = 0.4011	0.227	–
x1 = 0.452	–	0.272
x1 = 0.4521	0.229	–
x1 = 0.501	–	0.267
x1 = 0.5011	0.229	–
x1 = 0.552	–	0.26
x1 = 0.5521	0.22	–
x1 = 0.601	0.21	0.248
x1 = 0.6516	–	0.231
x1 = 0.6517	0.196	–
x1 = 0.7018	–	0.211
x1 = 0.7019	0.177	–
x1 = 0.7516	–	0.185
x1 = 0.7517	0.155	–
x1 = 0.8008	–	0.158
x1 = 0.8009	0.128	–
x1 = 0.851	0.0997	0.122
x1 = 0.9002	0.0677	0.0855
x1 = 0.95	0.0338	0.0441
x1 = 1	0	0

CC(C)CC(C)(C)C [2,2,4-trimethylpentane]
Settings	vapor or sublimation pressure [kPa]
[2]	12.97

CCCC(C)O (configuration not stated) [pentan-2-ol]
Settings	vapor or sublimation pressure [kPa]
[2]	2.295

CC(C)CC(C)(C)C [2,2,4-trimethylpentane] + CCCC(C)O
[1], x2 = 0
Settings	excess molar enthalpy [kcal/mol]
298.15 K	0
313.15 K	0

CCCCCCC [heptane]
Settings	vapor or sublimation pressure [kPa]
[2]	12.31

CCCC(C)O (configuration not stated) [pentan-2-ol] + CCCCCCC
excess molar enthalpy [kcal/mol], [1]
Settings	298.15 K	313.15 K
x1 = 0.0504	–	0.146
x1 = 0.0505	0.117	–
x1 = 0.0996	–	0.197
x1 = 0.0997	0.151	–
x1 = 0.1475	–	0.223
x1 = 0.1477	0.173	–
x1 = 0.1967	–	0.242
x1 = 0.1969	0.19	–
x1 = 0.2469	–	0.256
x1 = 0.2472	0.203	–
x1 = 0.2956	–	0.265
x1 = 0.2962	0.211	–
x1 = 0.3455	–	0.27
x1 = 0.346	0.219	–
x1 = 0.3962	–	0.273
x1 = 0.3967	0.225	–
x1 = 0.4454	–	0.273
x1 = 0.4459	0.227	–
x1 = 0.4953	–	0.27
x1 = 0.4958	0.226	–
x1 = 0.5458	–	0.263
x1 = 0.5463	0.221	–
x1 = 0.5968	–	0.251
x1 = 0.5972	0.212	–
x1 = 0.6462	–	0.237
x1 = 0.6466	0.2	–
x1 = 0.6959	–	0.214
x1 = 0.6963	0.181	–
x1 = 0.7477	–	0.19
x1 = 0.748	0.159	–
x1 = 0.7979	–	0.161
x1 = 0.7981	0.132	–
x1 = 0.8481	–	0.127
x1 = 0.8483	0.103	–
x1 = 0.8984	–	0.088
x1 = 0.8985	0.0706	–
x1 = 0.9485	–	0.0461
x1 = 0.9486	0.0359	–
x1 = 1	0	0

CCCCCCC [heptane] + CCCC(C)O
[1], x2 = 0
Settings	excess molar enthalpy [kcal/mol]
298.15 K	0
313.15 K	0
